# In PubChem BioAssay (NCI):
#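 All cell lines were grown in 96-well plates and treated with compound for 48 hours. At the GI50, growth is halved. The concentration for full growth arrest is given as TGI.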
# Experiments:
# Assay in all cases: NCI anticancer screen, dose series, 48 h
# OVCAR-5 ovarian = system: OVCAR-5 ovarian
# PC-3 prostate = system: PC-3 prostate
# SF-295 CNS = system: SF-295 CNS
# SK-OV-3 ovarian = system: SK-OV-3 ovarian
# T-47D breast = system: T-47D breast
# SR leukemia = system: SR leukemia
# HOP-62 NSCLC = system: HOP-62 NSCLC
# U251 CNS = system: U251 CNS
# HT29 colon = system: HT29 colon
# UACC-62 melanoma = system: UACC-62 melanoma
# A549 NSCLC = system: A549 NSCLC
# NCI-H460 lung = system: NCI-H460 lung
# SK-MEL-5 melanoma = system: SK-MEL-5 melanoma
# NCI/ADR-RES ovarian = system: NCI/ADR-RES ovarian
# SW-620 colon = system: SW-620 colon
# OVCAR-8 ovarian = system: OVCAR-8 ovarian
# OVCAR-4 ovarian = system: OVCAR-4 ovarian
# SK-MEL-28 melanoma = system: SK-MEL-28 melanoma
# HS 578T breast = system: HS 578T breast
# MDA-MB-435 = system: MDA-MB-435
# SN12C renal = system: SN12C renal
# NCI-H522 lung = system: NCI-H522 lung
# MALME-3M melanoma = system: MALME-3M melanoma
# OVCAR-3 ovarian = system: OVCAR-3 ovarian
# LOX IMVI melanoma = system: LOX IMVI melanoma
# SNB-75 CNS = system: SNB-75 CNS
# HOP-92 NSCLC = system: HOP-92 NSCLC
# RPMI-8226 leukemia = system: RPMI-8226 leukemia
# HCT-15 colon = system: HCT-15 colon
# KM12 colon = system: KM12 colon
# NCI-H23 lung = system: NCI-H23 lung
# NCI-H226 lung = system: NCI-H226 lung
# MDA-MB-231 breast = system: MDA-MB-231 breast
# HL-60(TB) leukemia = system: HL-60(TB) leukemia
# DU-145 prostate = system: DU-145 prostate
# 786-0 renal = system: 786-0 renal
# ACHN renal = system: ACHN renal
# SNB-19 CNS = system: SNB-19 CNS
# SF-268 CNS = system: SF-268 CNS
# TK-10 renal = system: TK-10 renal
# HCT-116 colon = system: HCT-116 colon
# UO-31 renal = system: UO-31 renal
# UACC-257 melanoma = system: UACC-257 melanoma
# M14 melanoma = system: M14 melanoma
# MOLT-4 leukemia = system: MOLT-4 leukemia
# SK-MEL-2 melanoma = system: SK-MEL-2 melanoma
# HCC-2998 colon = system: HCC-2998 colon
# BT-549 breast = system: BT-549 breast
# A498 renal = system: A498 renal
# CCRF-CEM leukemia = system: CCRF-CEM leukemia
# MCF7 breast = system: MCF7 breast
# SF-539 CNS = system: SF-539 CNS
# CAKI-1 renal = system: CAKI-1 renal
# IGROV1 ovarian = system: IGROV1 ovarian
# K-562 leukemia = system: K-562 leukemia
# COLO 205 colon = system: COLO 205 colon
# EKVX NSCLC = system: EKVX NSCLC
# RXF 393 renal = system: RXF 393 renal
compound,measurement,setting,value
Fc1ccc(Nc2nc3nonc3nc2Nc2ccc(F)cc2)cc1,GI50,OVCAR-5 ovarian,709 nM
same,TGI,OVCAR-5 ovarian,13800 nM
same,GI50,PC-3 prostate,280 nM
same,TGI,PC-3 prostate,11200 nM
same,GI50,SF-295 CNS,271 nM
same,TGI,SF-295 CNS,1260 nM
same,GI50,SK-OV-3 ovarian,244 nM
same,TGI,SK-OV-3 ovarian,852 nM
same,GI50,T-47D breast,221 nM
same,TGI,T-47D breast,775 nM
same,GI50,SR leukemia,447 nM
same,TGI,SR leukemia,2750 nM
same,GI50,HOP-62 NSCLC,319 nM
same,TGI,HOP-62 NSCLC,2130 nM
same,GI50,U251 CNS,387 nM
same,TGI,U251 CNS,10800 nM
same,GI50,HT29 colon,482 nM
same,TGI,HT29 colon,10700 nM
same,GI50,UACC-62 melanoma,283 nM
same,TGI,UACC-62 melanoma,3220 nM
same,GI50,A549 NSCLC,354 nM
same,TGI,A549 NSCLC,11400 nM
same,GI50,NCI-H460 lung,319 nM
same,TGI,NCI-H460 lung,10500 nM
same,GI50,SK-MEL-5 melanoma,229 nM
same,TGI,SK-MEL-5 melanoma,702 nM
same,GI50,NCI/ADR-RES ovarian,329 nM
same,TGI,NCI/ADR-RES ovarian,2760 nM
same,GI50,SW-620 colon,573 nM
same,TGI,SW-620 colon,14200 nM
same,GI50,OVCAR-8 ovarian,402 nM
same,TGI,OVCAR-8 ovarian,15400 nM
same,GI50,OVCAR-4 ovarian,294 nM
same,TGI,OVCAR-4 ovarian,10900 nM
same,GI50,SK-MEL-28 melanoma,505 nM
same,TGI,SK-MEL-28 melanoma,11000 nM
same,GI50,HS 578T breast,370 nM
same,TGI,HS 578T breast,4030 nM
same,GI50,MDA-MB-435,338 nM
same,TGI,MDA-MB-435,3610 nM
same,GI50,SN12C renal,301 nM
same,TGI,SN12C renal,3010 nM
same,GI50,NCI-H522 lung,194 nM
same,TGI,NCI-H522 lung,561 nM
same,GI50,MALME-3M melanoma,277 nM
same,TGI,MALME-3M melanoma,1110 nM
same,GI50,OVCAR-3 ovarian,371 nM
same,TGI,OVCAR-3 ovarian,11000 nM
same,GI50,LOX IMVI melanoma,469 nM
same,TGI,LOX IMVI melanoma,4290 nM
same,GI50,SNB-75 CNS,399 nM
same,TGI,SNB-75 CNS,3380 nM
same,GI50,HOP-92 NSCLC,168 nM
same,TGI,HOP-92 NSCLC,629 nM
same,GI50,RPMI-8226 leukemia,207 nM
same,TGI,RPMI-8226 leukemia,697 nM
same,GI50,HCT-15 colon,384 nM
same,TGI,HCT-15 colon,11700 nM
same,GI50,KM12 colon,395 nM
same,TGI,KM12 colon,10600 nM
same,GI50,NCI-H23 lung,264 nM
same,TGI,NCI-H23 lung,852 nM
same,GI50,NCI-H226 lung,384 nM
same,TGI,NCI-H226 lung,13900 nM
same,GI50,MDA-MB-231 breast,493 nM
same,TGI,MDA-MB-231 breast,4250 nM
same,GI50,HL-60(TB) leukemia,342 nM
same,TGI,HL-60(TB) leukemia,1500 nM
same,GI50,DU-145 prostate,570 nM
same,TGI,DU-145 prostate,15000 nM
same,GI50,786-0 renal,509 nM
same,TGI,786-0 renal,8480 nM
same,GI50,ACHN renal,399 nM
same,TGI,ACHN renal,7090 nM
same,GI50,SNB-19 CNS,386 nM
same,TGI,SNB-19 CNS,16100 nM
same,GI50,SF-268 CNS,505 nM
same,TGI,SF-268 CNS,14300 nM
same,GI50,TK-10 renal,435 nM
same,TGI,TK-10 renal,6740 nM
same,GI50,HCT-116 colon,322 nM
same,TGI,HCT-116 colon,11400 nM
same,GI50,UO-31 renal,285 nM
same,TGI,UO-31 renal,1330 nM
same,GI50,UACC-257 melanoma,401 nM
same,TGI,UACC-257 melanoma,3160 nM
same,GI50,M14 melanoma,586 nM
same,TGI,M14 melanoma,10500 nM
same,GI50,MOLT-4 leukemia,356 nM
same,TGI,MOLT-4 leukemia,1650 nM
same,GI50,SK-MEL-2 melanoma,285 nM
same,TGI,SK-MEL-2 melanoma,807 nM
same,GI50,HCC-2998 colon,414 nM
same,TGI,HCC-2998 colon,5490 nM
same,GI50,BT-549 breast,309 nM
same,TGI,BT-549 breast,2770 nM
same,GI50,A498 renal,163 nM
same,TGI,A498 renal,660 nM
same,GI50,CCRF-CEM leukemia,350 nM
same,TGI,CCRF-CEM leukemia,10100 nM
same,GI50,MCF7 breast,567 nM
same,TGI,MCF7 breast,11200 nM
same,GI50,SF-539 CNS,486 nM
same,TGI,SF-539 CNS,11600 nM
same,GI50,CAKI-1 renal,350 nM
same,TGI,CAKI-1 renal,10800 nM
same,GI50,IGROV1 ovarian,570 nM
same,TGI,IGROV1 ovarian,13800 nM
same,GI50,K-562 leukemia,352 nM
same,TGI,K-562 leukemia,12400 nM
same,GI50,COLO 205 colon,342 nM
same,TGI,COLO 205 colon,1430 nM
Nc1nc(-c2ccccc2)nc2c1[n+]([O-])c1ccccc1[n+]2[O-],TGI,OVCAR-5 ovarian,> 100000 nM
same,TGI,PC-3 prostate,> 100000 nM
same,TGI,SF-295 CNS,> 100000 nM
same,TGI,SK-OV-3 ovarian,> 100000 nM
same,TGI,T-47D breast,> 100000 nM
same,TGI,HOP-62 NSCLC,> 100000 nM
same,TGI,U251 CNS,> 100000 nM
same,TGI,HT29 colon,> 100000 nM
same,TGI,UACC-62 melanoma,> 100000 nM
same,TGI,A549 NSCLC,> 100000 nM
same,TGI,NCI-H460 lung,> 100000 nM
same,TGI,SK-MEL-5 melanoma,> 100000 nM
same,TGI,NCI/ADR-RES ovarian,> 100000 nM
same,TGI,SW-620 colon,> 100000 nM
same,TGI,OVCAR-8 ovarian,> 100000 nM
same,TGI,SK-MEL-28 melanoma,> 100000 nM
same,TGI,HS 578T breast,> 100000 nM
same,TGI,MDA-MB-435,> 100000 nM
same,TGI,EKVX NSCLC,> 100000 nM
same,TGI,SN12C renal,> 100000 nM
same,TGI,NCI-H522 lung,> 100000 nM
same,TGI,MALME-3M melanoma,> 100000 nM
same,TGI,OVCAR-3 ovarian,> 100000 nM
same,TGI,LOX IMVI melanoma,> 100000 nM
same,TGI,RPMI-8226 leukemia,> 100000 nM
same,TGI,HCT-15 colon,> 100000 nM
same,TGI,KM12 colon,> 100000 nM
same,TGI,NCI-H23 lung,> 100000 nM
same,TGI,NCI-H226 lung,> 100000 nM
same,TGI,MDA-MB-231 breast,> 100000 nM
same,TGI,HL-60(TB) leukemia,> 100000 nM
same,TGI,DU-145 prostate,> 100000 nM
same,TGI,786-0 renal,> 100000 nM
same,TGI,ACHN renal,> 100000 nM
same,TGI,RXF 393 renal,> 100000 nM
same,TGI,SNB-19 CNS,> 100000 nM
same,TGI,SF-268 CNS,> 100000 nM
same,TGI,TK-10 renal,> 100000 nM
same,TGI,HCT-116 colon,> 100000 nM
same,TGI,UO-31 renal,> 100000 nM
same,TGI,UACC-257 melanoma,> 100000 nM
same,TGI,M14 melanoma,> 100000 nM
same,TGI,SK-MEL-2 melanoma,> 100000 nM
same,TGI,HCC-2998 colon,> 100000 nM
same,TGI,BT-549 breast,> 100000 nM
same,TGI,A498 renal,> 100000 nM
same,TGI,CCRF-CEM leukemia,> 100000 nM
same,TGI,MCF7 breast,> 100000 nM
same,TGI,SF-539 CNS,> 100000 nM
same,TGI,CAKI-1 renal,> 100000 nM
same,TGI,IGROV1 ovarian,> 100000 nM
same,TGI,K-562 leukemia,> 100000 nM
same,TGI,COLO 205 colon,> 100000 nM
